Assays:
[1] = biological target: T1, HIV protease (Human immunodeficiency virus type 1 group M subtype B, UniProt P04585); assay: HIV protease enzyme assay (fluorogenic substrate); type: biochemical; details: for IC50: HIV protease 12.3 nanomolar, substrate 80 μM, pH 6.4, read-out: Enzyme Inhibition (IC50); for inhibition at 10 µM: read-out: inhibition of the HIV enzyme
T1 construct: final enzyme concentration of 12.3 nanomolar, based on a molecular weight of 10,780
Protocol: The calculated IC50 (inhibiting concentration 50%, i.e., the concentrations at which the inhibitor compound reduces enzyme activity by 50%) values are shown in Table 1. The enzyme method is described below. The substrate is 2-aminobenzoyl-Ile-Nle-Phe(p-NO2)-Gln-ArgNH2. The positive control is MVT-101 (Miller, M. et al, Science, 246, 1149 (1989)]. The assay conditions are as follows:
Assay buffer: 20 mM sodium phosphate, pH 6.4
The above described substrate is dissolved in DMSO, then diluted 10 fold in assay buffer. Final substrate concentration in the assay is 80 μM.
HIV protease is diluted in the assay buffer to a final enzyme concentration of 12.3 nanomolar, based on a molecular weight of 10,780.
The final concentration of DMSO is 14% and the final concentration of glycerol is 18%. The test compound is dissolved in DMSO and diluted in DMSO to 10× the test concentration; 10 μL of the enzyme preparation is added, the materials mixed and then the mixture is incubated at ambient temperature for 15 minutes. The enzyme reaction is initiated by the addition of 40 μL of substrate. The increase in fluorescence is monitored at 4 time points (0, 8, 16 and 24 minutes) at ambient temperature. Each assay is carried out in duplicate wells.

[2] = tested on: HIV-1; assay: CEM cell assay, HIV inhibition in acutely infected cells (MTT); type: cell-based; details: Human immunodeficiency virus 1, CCRF-CEM, 168 h; CEM cells infected with HIV-1, 7 days, reduces cytopathicity by 50%; read-out: Antiviral Activity in Cell Culture (EC50)
Protocol: (§1) The effectiveness of the compounds tested in Part A was also determined in a CEM cell assay. The HIV inhibition assay method of acutely infected cells is an automated tetrazolium based calorimetric assay essentially that reported by Pauwles et al, J. Virol. Methods 20, 309-321 (1988). Assays were performed in 96-well tissue culture plates. CEM cells, a CD4^+ cell line, were grown in RPMI-1640 medium (Gibco) supplemented with a 10% fetal calf serum and were then treated with polybrene ([…]). An 80 μL volume of medium containing 1×10^4 cells was dispensed into each well of the tissue culture plate. To each well was added a 100 μL volume of test compound dissolved in tissue culture medium (or medium without test compound as a control) to achieve the desired final concentration and the cells were incubated at 37° C. for 1 hour. A frozen culture of HIV-1 was diluted in culture medium to a concentration of 5×10^4 TCID50 per mL (TCID50=the dose of virus that infects 50% of cells in tissue culture), and a 20 μL volume of the virus sample (containing 1000 TCID50 of virus) was added to wells containing test compound and to wells containing only medium (infected control cells). Several wells received culture medium without virus (uninfected control cells). Likewise, the intrinsic toxicity of the test compound was determined by adding medium without virus to several wells containing test compound. In summary, the tissue culture plates contained the following experiments:
(§2) In experiments 2 and 4, the final concentrations of test compounds were 1, 10, 100 and 500 μg/mL. Either azidothymidine (AZT) or dideoxyinosine (ddI) was included as a positive drug control. […] DMSO was added to all control wells at an appropriate concentration.
(§3) Following the addition of virus, cells were incubated at 37° C. in a humidified, 5% CO2 atmosphere for 7 days. Test compounds could be added on days 0, 2 and 5 if desired. On day 7, post-infection, the cells in each well were resuspended and a 100 μL sample of each cell suspension was removed for assay. A 20 μL volume of a 5 mg/mL solution of 3-(4,5-dimethylthiazol-2-yl)-2,5-diphenyltetrazolium bromide (MTT) was added to each 100 μL cell suspension, and the cells were incubated for 4 hours at […] in a 5% CO2 environment. […] To each sample was added 100 μL of 10% sodium dodecylsulfate in 0.01 N HCl to lyse the cells, and samples were incubated overnight. The absorbance at 590 nm was determined for each sample using a Molecular Devices microplate reader. Absorbance values for each set of wells is compared to assess viral control infection, uninfected control cell response as well as test compound by cytotoxicity and antiviral efficacy.
(§4) The calculated EC50 (effective concentration 50%, i.e., the concentration at which the inhibitor compound reduces cytopathicity by 50%) and TD50 (toxic dose 50%, i.e., the concentration at which the inhibitor compound reduces cellular viability by 50%) values for these compounds are also shown in Table 1.

[3] = tested on: CEM cells; assay: CEM cell assay, intrinsic toxicity of test compound (MTT, no virus); type: cell-based; details: CEM cells without virus, reduces cellular viability by 50%
Protocol: as §1, §2, §3, §4

Compound | IC50 [1] | EC50 [2] | Cell Toxicity (TD50) [3] | inhibition at 10 µM [1]
C[C@H](CS(C)(=O)=O)C(=O)N[C@@H](Cc1ccccc1)[C@H](O)CN1C[C@H]2CCCC[C@H]2C[C@H]1C(=O)NC(C)(C)C | 7 nM | 42 nM | 58,000 nM | 
COc1ccc(COC(=O)NC[C@@H](C)C(=O)N[C@@H](Cc2ccccc2)[C@H](O)CN2C[C@H]3CCCC[C@H]3C[C@H]2C(=O)NC(C)(C)C)cc1 | 2 nM | 52 nM | 2,000 nM | 
CC(C)(C)NC(=O)[C@@H]1C[C@@H]2CCCC[C@@H]2CN1C[C@@H](O)[C@H](Cc1ccccc1)NC(=O)C[C@H](NC(=O)c1ccc2ccccc2n1)C(N)=O (relative stereo) [Example 10, Butanediamide, N^4-[3-[3-[[((1,1-Dimethylethyl)-amino]carbonyl]octahydro-2(1H)-isoquinolinyl]-2-hydroxy-1-(phenylmethyl)propyl]-2-[(2-quinolinylcarbonyl)amino]-, [3S[2[1R*(R*),2S*],3α,4aβ,8aβ]]-] |  |  |  | 3 to 100%
C[C@@H](C(=O)N[C@@H](Cc1ccccc1)[C@H](O)CN1C[C@H]2CCCC[C@H]2C[C@H]1C(=O)NC(C)(C)C)C(C)(C)C(N)=O (relative stereo) [Example 12, Butanamide, 4-[[3-[3-[[(1,1-Dimethylethyl)-amino]carbonyl]octahydro-2(1H)-isoquinolinyl]-2-hydroxy-1-(phenylmethyl)propyl]amino]-2,2,3-trimethyl-4-oxo-, [3S-[2[1R*(S*),2S*],3α,4aβ,8aβ]]-] |  |  |  | 3 to 100%
COc1ccc(COC(=O)NC[C@@H](C)C(=O)N[C@@H](Cc2ccccc2)[C@H](O)CN2C[C@H]3CCCC[C@H]3C[C@H]2C(=O)NC(C)(C)C)cc1 (relative stereo) [Example 4, Carbamic Acid, [3-[[3-[3-[[(1,1-Dimethylethyl)-amino]carbonyl]octahydro-2(1H)-isoquinolinyl]-2-hydroxy-1-(phenylmethyl)propyl]amino]-2-methyl-3-oxopropyl]-, (4-Methoxyphenyl)methyl Ester, [3S-[2(1R*,(S*),2S*),3α,4aβ,8aβ]]-] |  |  |  | 3 to 100%
C[C@@H](C(=O)N[C@@H](Cc1ccccc1)[C@H](O)CN1C[C@H]2CCCC[C@H]2C[C@H]1C(=O)NC(C)(C)C)C(C)(C)C(=O)O | 23 nM | 184 nM | 50,000 nM | 
C[C@@H](C(=O)N[C@@H](Cc1ccccc1)[C@H](O)CN1C[C@H]2CCCC[C@H]2C[C@H]1C(=O)NC(C)(C)C)C(C)(C)CN | 9 nM | 98 nM | 59,000 nM | 
C[C@@H](C(=O)N[C@@H](Cc1ccccc1)[C@H](O)CN1C[C@H]2CCCC[C@H]2C[C@H]1C(=O)NC(C)(C)C)C(C)(C)C(=O)O (relative stereo) [Example 12C, butanoic acid, 4-[[3-[3-[[(1,1-dimethylethyl)amino]carbonyl]octahydro-2(1H)-isoquinolinyl]-2-hydroxy-1-(phenylmethyl)propyl]amino]-2,2,3-trimethyl-4-oxo-, [3S-[2[1R*(S*),2S*],3α,4aβ,8aβ]]-] |  |  |  | 3 to 100%
C[C@H](CS(C)(=O)=O)C(=O)N[C@@H](Cc1ccccc1)[C@H](O)CN1C[C@H]2CCCC[C@H]2C[C@H]1C(=O)NC(C)(C)C (relative stereo) [Example 6, 3-Isoquinolinecarboxamide, N-(1,1-Dimethylethyl)decahydro-2-[2-hydroxy-3-[[2-methyl-3-(methylsulfonyl)-1-oxopropyl]amino]-4-phenylbutyl]-, [3S-[2(2S*,3S*(R*)],3α,4aβ,8aβ]]-] |  |  |  | 3 to 100%
CC(C)(C)NC(=O)[C@@H]1C[C@@H]2CCCC[C@@H]2CN1C[C@@H](O)[C@H](Cc1ccccc1)NC(=O)C[C@H](NC(=O)c1ccc2ccccc2n1)C(N)=O | 9 nM | 37 nM | 5,000 nM | 
